Data reported in paper PMC9506420, “Biological Evaluation of 3-Azaspiro[Bicyclo[3.1.0]Hexane-2,5′-Pyrimidines] as Potential Antitumor Agents” (International Journal of Molecular Sciences, 2022).
Read-outs that look alike come from different tables or passages of the source.

Columns and labels:
Assay type in all cases: cell-based
[1] = test system: African green monkey kidney epithelial (Vero) cell line; assay: MTS antiproliferative (cytotoxicity) assay, Vero (reference)
Experimental: (§1) The cytotoxicity of synthesized 3-azaspiro[bicyclo[3.1.0]hexane-2,5′-pyrimidines] 4 against human erythroleukemia (K562), cervical carcinoma (HeLa), and T lymphocyte (Jurkat), as well as mouse colon carcinoma (CT26) and African green monkey kidney epithelial (Vero) cell lines as reference, was evaluated in vitro by the standard MTS assay for 24 and 72 h.
(§2) All the cell lines (human cervical carcinoma (HeLa), erythroleukemia (K-562), and T lymphocyte (Jurkat) as well as mouse colon carcinoma (CT26) and African green monkey kidney epithelial (Vero)) were obtained from the cell repository “Vertebrate cell culture collection” (supported by the Ministry of Science and Higher Education of the Russian Federation, agreement №075-15-2021-683, Institute of Cytology, Russian Academy of Sciences, Saint Petersburg, Russia). HeLa, Jurkat, and Vero cells were cultured in DMEM (HyClone, South Logan, UT, USA) supplemented with 10% (v/v) fetal bovine serum (Hyclone, GE Healthcare Life Sciences, Logan, UT, USA), and gentamicin (Sigma-Aldrich, St. Louis, MO, USA) at 37 °C in a humidified atmosphere with 5% CO2. K-562 and CT26 cells were grown at RPMI medium (Hyclone, GE Healthcare Life Sciences, Logan, UT, USA), with the same supplements and conditions.
(§3) To evaluate the in vitro toxicity of compounds synthesized, cells were seeded into 96-well plates at a density of 5 × 10^3 cells per well. On the next day, tested compounds were added to the wells at concentrations ranging from […], followed by incubation for 1 and 3 days. Cell proliferation was determined by adding 20 μL of MTS reagent (BioVision, Milpitas, CA, USA) stock solution per well. Each plate was incubated for 2 h at 37 °C in a humidified, 5% CO2 atmosphere. The plates were then read at 495 nm using plate spectrophotometer (Multiskan GO, Thermo Fisher Scientific, Waltham, MA, USA). All samples were measured in triplicates.

[2] = test system: human cervical carcinoma (HeLa) cell line; assay: MTS antiproliferative (cytotoxicity) assay, HeLa; settings: for SI (selectivity index), HeLa: Vero as reference cell line
Experimental: as §1, §2, §3

[3] = test system: mouse colon carcinoma (CT26) cell line; assay: MTS antiproliferative (cytotoxicity) assay, CT26; settings: for SI (selectivity index), CT26: Vero as reference cell line
Experimental: as §1, §2, §3

[4] = test system: human erythroleukemia (K562) cell line; assay: MTS antiproliferative (cytotoxicity) assay, K562; settings: for SI (selectivity index), K562: Vero as reference cell line
Experimental: as §1, §2, §3

[5] = test system: K562, Jurkat, HeLa, CT26 and Vero cell lines; assay: MTS antiproliferative screening, all tested cell lines; settings: compared with phenyl substituted adducts
Experimental: The cytotoxicity of synthesized 3-azaspiro[bicyclo[3.1.0]hexane-2,5′-pyrimidines] 4 against human erythroleukemia (K562), cervical carcinoma (HeLa), and T lymphocyte (Jurkat), as well as mouse colon carcinoma (CT26) and African green monkey kidney epithelial (Vero) cell lines as reference, was evaluated in vitro by the standard MTS assay for 24 and 72 h. The results are presented in Figure 1, Figure 2, Figure 3, Figure 4 and Figure 5 (data on all, tested on K562, HeLa, and CT26 cell lines’ compounds, are given at SI, Figures S1–S3). […] Replacement of the phenyl group by either the carboxymethyl or N-isopropylcarbamoyl group has led to a significant decrease in the activity of spiro-fused cycloadducts comprising azabicyclo[3.1.0]hexane and alloxane moieties. […]
To evaluate the in vitro toxicity of compounds synthesized, cells were seeded into 96-well plates at a density of 5 × 10^3 cells per well. […] Cell proliferation was determined by adding 20 μL of MTS reagent (BioVision, Milpitas, CA, USA) stock solution per well. […] The plates were then read at 495 nm using plate spectrophotometer (Multiskan GO, Thermo Fisher Scientific, Waltham, MA, USA). All samples were measured in triplicates.

[6] = test system: human T lymphocyte (Jurkat) cell line; assay: MTS antiproliferative (cytotoxicity) assay, Jurkat; settings: for IC50: Homo sapiens, MTS
Experimental: The cytotoxicity of synthesized 3-azaspiro[bicyclo[3.1.0]hexane-2,5′-pyrimidines] 4 against human erythroleukemia (K562), cervical carcinoma (HeLa), and T lymphocyte (Jurkat), as well as mouse colon carcinoma (CT26) and African green monkey kidney epithelial (Vero) cell lines as reference, was evaluated in vitro by the standard MTS assay for 24 and 72 h. The results are presented in Figure 1, Figure 2, Figure 3, Figure 4 and Figure 5 (data on all, tested on K562, HeLa, and CT26 cell lines’ compounds, are given at SI, Figures S1–S3). […] Replacement of the phenyl group by either the carboxymethyl or N-isopropylcarbamoyl group has led to a significant decrease in the activity of spiro-fused cycloadducts comprising azabicyclo[3.1.0]hexane and alloxane moieties.
as §2, §3

[7] = Chlorocebus sabaeus, Vero, 24 h, read-out: IC50, Vero, 24 h
[8] = Chlorocebus sabaeus, Vero, 72 h, read-out: IC50, Vero, 72 h
[9] = Homo sapiens, HeLa, 24 h, read-out: IC50, HeLa, 24 h
[10] = Homo sapiens, HeLa, 72 h, read-out: IC50, HeLa, 72 h
[11] = Mus musculus, CT26, 24 h, read-out: IC50, CT26, 24 h
[12] = Mus musculus, CT26, 72 h, read-out: IC50, CT26, 72 h
[13] = Homo sapiens, K562, 24 h, read-out: IC50, K562, 24 h
[14] = Homo sapiens, K562, 72 h, read-out: IC50, K562, 72 h

Compound | IC50 [1, 7] [µM] | IC50 [1, 8] [µM] | SI (selectivity index), HeLa ([2]; HeLa) | IC50 [2, 9] [µM] | IC50 [2, 10] [µM] | SI (selectivity index), CT26 ([3]; CT26) | IC50 [3, 11] [µM] | IC50 [3, 12] [µM] | IC50 [4, 13] [µM] | IC50 [4, 14] [µM] | SI (selectivity index), K562 ([4]; K562) | other results
C[C@@H]1NC2(C(=O)NC(=O)NC2=O)[C@]2(c3ccccc3)[C@@H](c3ccccc3)[C@]12c1ccccc1 [Compound 4b] | 55 ± 7 | 21 ± 2 | 1.2 | 34 ± 2 | 18 ± 2 | 1.0 | 30 ± 2 | 21 ± 2 | 25 ± 5 | 9 ± 2 | 2.4 | 
N.N.[Cl][Pt][Cl] [Cisplatin, reference compound] |  |  | 0.7 |  |  | 0.8 |  |  |  |  | 0.3 | IC50 ([1]; MTS, 24 h, read-out: IC50, Vero, 24 h): 14 ± 1 µM; IC50 ([1]; MTS, 72 h, read-out: IC50, Vero, 72 h): 4 ± 1 µM; IC50 ([2]; MTS, 24 h, read-out: IC50, HeLa, 24 h): 16 ± 4 µM; IC50 ([2]; MTS, 72 h, read-out: IC50, HeLa, 72 h): 6 ± 1 µM; IC50 ([3]; MTS, 24 h, read-out: IC50, CT26, 24 h): 24 ± 4 µM; IC50 ([3]; MTS, 72 h, read-out: IC50, CT26, 72 h): 5 ± 1 µM; IC50 ([4]; MTS, 24 h, read-out: IC50, K562, 24 h): 46 ± 8 µM; IC50 ([4]; MTS, 72 h, read-out: IC50, K562, 72 h): 14 ± 2 µM
COc1cccc2c1C(=O)c1c(O)c3c(c(O)c1C2=O)C[C@@](O)(C(=O)CO)C[C@@H]3O[C@H]1C[C@H](N)[C@H](O)[C@H](C)O1 [Doxorubicin, reference compound] |  |  | 4.8 |  |  | 0.5 |  |  |  |  | 2.0 | IC50 ([1]; Chlorocebus sabaeus, Vero, MTS, 24 h, read-out: IC50, Vero, 24 h): 13 ± 2 µM; IC50 ([1]; Chlorocebus sabaeus, Vero, MTS, 72 h, read-out: IC50, Vero, 72 h): 2.4 ± 0.4 µM; IC50 ([2]; Homo sapiens, HeLa, MTS, 24 h, read-out: IC50, HeLa, 24 h): 4 ± 1 µM; IC50 ([2]; Homo sapiens, HeLa, MTS, 72 h, read-out: IC50, HeLa, 72 h): 0.5 ± 0.1 µM; IC50 ([3]; Mus musculus, CT26, MTS, 24 h, read-out: IC50, CT26, 24 h): 19 ± 3 µM; IC50 ([3]; Mus musculus, CT26, MTS, 72 h, read-out: IC50, CT26, 72 h): 5.5 ± 0.3 µM; IC50 ([4]; Homo sapiens, K562, MTS, 24 h, read-out: IC50, K562, 24 h): 16 ± 3 µM; IC50 ([4]; Homo sapiens, K562, MTS, 72 h, read-out: IC50, K562, 72 h): 1.2 ± 0.3 µM
O=C1NC(=O)C2(NC[C@@]3(c4ccccc4)[C@H](c4ccccc4)[C@@]23c2ccccc2)C(=O)N1 [Compound 4a] | 50 ± 14 | 14 ± 2 | 0.2 | 125 ± 18 | 70 ± 4 | 0.3 | 64 ± 7 | 50 ± 7 | 47 ± 8 | 14 ± 1 | 1.0 | relative antiproliferative activity (structure-activity comparison) [5]: less active; IC50 ([6]; 24 h, read-out: IC50, Jurkat, 24 h): 24 ± 2 µM; IC50 ([6]; 72 h, read-out: IC50, Jurkat, 72 h): 19 ± 5 µM; SI (selectivity index), Jurkat ([6]; Vero as reference cell line): 0.8
